Consider one compound from patent US10517863B2, “Trilobine and its natural analogs for use as a drug” (PIERRE FABRE MEDICAMENT, priority 2015, dated 2019).

pEC50: −log10 of the molar value.

Assay [1] has as its system P15 promoter in leukaemia KG1 cells. The experiment in a line: P15 (CDKN2B) promoter demethylation, bisulfite PCR cloning-sequencing. The assay is classed as cell-based, human. Conditions: after 3 days, at 0.32 μM. As for the experimental part: Cancer cell lines (colon HCT116 or leukaemia KG1) were treated with the compounds as indicated in the Data Tables and then analysed as following.
DNA was isolated from cultured cells using the DNeasy Blood and Tissue Kit according to the manufacturer's specifications (Qiagen). DNA bisulphite conversion was performed on 2 μg of DNA using the EZ DNA Methylation-Gold Kit according to the manufacturer's specifications (Zymo Research) and bisulfited DNA was eluted with 10 μL of water. Two different techniques were used to analyse the DNA methylation profile after bisulfite conversion of genomic DNA: (A) cloning and sequencing or (B) COBRA. The primers for each promoter are specified in the Table 3.
Sequencing of bisulfite-treated DNA allowing resolution of the methylation state of every cytosine in the target sequence, at single molecule resolution, is considered as the “gold standard” for DNA methylation analysis.
Bisulfite-specific primers with a minimum length of 18 bp were designed using Primer 3 program. […]
PCR amplicons were cloned with the StrataClone Ultra Blunt PCR Cloning Kit (Agilent Technologies), according to the manufacturers' instructions and up to 24 clones were picked for sequencing. […] Electrophoregram files and methylation signals at a given CpG site were quantified using the BISMA software as described in the literature (Rohde et al. BMC Bioinformatics 2010, 11, 230).

Assay [2] relates to luciferase reporter under the control of a methylated CMV promoter in leukemia KG-1 cells. The experiment in a line: CMV-luc reexpression (luciferase reporter) in KG-1 cells. It is filed as cell-based, human. The settings on record: for Reactivation fold of luciferase gene reporter in KG-1 CMV-Luc: 24 hour incubation, fold induction vs DMSO, mean ± standard error. As for the experimental part:
Aiming at identifying new DNMT inhibitors, plant extract samples were tested for their ability to reactivate gene expression upon use of an integrated luciferase reporter system under the control of a methylated CMV promoter in leukemia KG-1 cells which inhibits its expression (CMV-luc assay reported in following Table). […] The extract was fractionated by preparative HPLC. Identification of the active components was accomplished by HRMS and NMR spectroscopy. The pure compounds isolated from the extract through bio-guided fractionation are trilobine and bisbenzylisoquinoline analogue products. The active compounds were then further evaluated for their ability to inhibit DNMTs in vitro and DNA methylation in cancer cells.
KG-1 cells were stably transfected with the firefly luciferase reporter gene (luc+ from pGL3; Promega) under the control of the cytomegalovirus (CMV) promoter (from pEGFP-N1; Clontech Laboratories Inc.) partially methylated (50%). 20,000 cells per well were seeded in a 96-well plate. After 24 hour incubation in the presence of the test compound or solvant (DMSO), the induction of the promoter was measured by quantification of the luciferase signal with the Brite-lite assay system (PerkinElmer) according to the manufacturer's protocol. The luminescence was measured on an EnVision multilabel plate reader (PerkinElmer), and the data are expressed as the fold induction as compared with the DMSO control. The mean of three experiments and the standard error is reported.

Assay [3] has as its system Karpass299. Nature of the assay: Anti-proliferative activity (ATPLite). The assay is classed as cell-based. The settings on record: Homo sapiens; Karpass299, Lymphoma; +/− standard error; read-out: Antiproliferative activity EC50. As for the experimental part: (§1) To measure the anti-proliferative properties of tested molecules, 2×10^4 cells are seeded at day 0 in a 96 wells plate. The compounds to be tested, stored at −20° C. as 10^−2 M stock solution in 100% DMSO, are freshly diluted on day 1 in the cell medium, before adding a dose range of 3.2 nM to 10 μM to the cells. The cell viability is assessed using the ATPLite kit from Perkin (ATPlite 1 Step Luminescence Assay System, ref 3016739), following the provider instructions. The raw data are analyzed with GraphPad Prism software (v4.03) to generate IC50 values corresponding to the compound concentrations giving 50% reduction in cell viability. The values presented are the mean results of at least two independent experiments. The standard errors are indicated.

For assay [4], the system named is HCT-116. Nature of the assay: Anti-proliferative activity (ATPLite). It is filed as cell-based. Conditions: Homo sapiens; HCT-116, Colorectal; +/− standard error; read-out: Antiproliferative activity EC50. As to the method:
as §1

The test system of assay [5] is KG-1. The experiment in a line: Anti-proliferative activity (ATPLite). Conditions: Homo sapiens; KG-1, Leukaemia; +/− standard error; read-out: Antiproliferative activity EC50. The assay is classed as cell-based. As for the experimental part:
as §1

As to `COc1ccc2cc1Oc1ccc(cc1)C[C@@H]1NCCc3cc(OC)c4c(c31)Oc1cc3c(cc1O4)CCN(C)[C@H]3C2` [Compound 1, Trilobine], the “Demethylation (COBRA) P15/KG1” value in assay [1] is listed as −25% after 3 days. The “Reactivation fold of luciferase gene reporter in KG-1 CMV-Luc” value is reported as 1.1 ± 0.1 fold in assay [2] (0.1 μM); 1.9 ± 1.2 fold in assay [2] (0.32 μM); 1.6 ± 0.8 fold in assay [2] (0.5 μM); 2.6 ± 1.4 fold in assay [2] (1 μM); 3.5 ± 1.1 fold in assay [2] (3.2 μM); 6.4 ± 0.1 fold in assay [2] (5 μM). Besides, in assay [2] (at 5 μM, 24 h), the “FI-24 h, KG1 CMV-Luc model” value is 5.8 ± 0.6. The results for the pEC50 in assay [3], in assay [4] and in assay [5] were 5.89, 5.92 and 5.66, respectively.
